The values below come from PubChem BioAssay AID1576 (EPA DSSTox, 2009).

The target in the series is Estrogen receptor (Rattus norvegicus) (UniProt P06211). The series can be described thus: DSSTox (KIERBL) EPA Estrogen Receptor Ki Binding Study (Laws et al.) Database. The settings on record: Rat uterine cytosol ER, 3H-estradiol competitive binding. As for the experimental part:
This study was conducted by EPA researchers to evaluate the validity of the rat uterine cytosolic (RUC) estrogen receptor (ER) competitive binding assay for use in the Endocrine Disruption Screening Program (EDSP). The assay measures the ability of radiolabeled 17-beta-estradiol (3H-E2) to bind with RUC ER in the presence of increasing concentrations of a test chemical. The goal is to employ this in vitro assay as a 1st tier screening tool for assessing the potential of structurally diverse environmental chemicals to bind to the ER, as well as to support research efforts to develop computational models to predict ER binding. A distinguishing feature of the present study was the use of secondary experimental analysis of binding curves and determination of Ki values to confirm that measured IC50 values corresponded to true positive results. The study concluded that a number of experimental conditions can confound interpretation of IC50 values obtained from the RUC ER-binding assay data and lead to false positive results. In particular, some chemical treatments likely alter the stability of the assay by changing the buffer pH, denaturing ER, or disrupting the ER binding kinetics. […] The chemicals used in this study were selected as part of a validation test for two Quantitative Structure-Activity Relationship (QSAR) models designed to predict ER binding [Fed. Reg. 67(250), 79618, Dec. 30, 2002]. Several hundred chemicals were initially screened, including approximately 100 chemicals selected from among the High Production Volume (HPV) chemicals included in EPA's Toxic Substances Control Act (TSCA) inventory that were predicted to be positive for ER binding, with the rest selected at random from the TSCA inventory. All chemicals were initially tested in ER competitive binding assays by Battelle Pacific Northwest Laboratories, Richland, Washington [EPA Contract Number 68-W-99-033, Task 6]. Approximately 50 chemicals produced binding curves that: (1) strongly implied competitive inhibition of ER binding, or (2) produced partial curves or irregular (non-sigmoid) binding curves. These chemicals were further evaluated in an ER competitive binding assay with secondary analysis to confirm true competitive inhibition and to determine an experimental Ki [U.S. EPA Contract 3D-5967-NTEX]. The results of RUC ER screening for these 50 structurally diverse chemicals, for which secondary confirmatory analyses were performed, were published in the Main Citation (Laws et al., 2006, Tox. Sci. 94:46-56). The remaining 228 chemicals were designated as non-binders based on initial screening studies.
The DSSTox KIERBL data files include all published IC50 and Ki experimental results for the 50 chemicals included in the Main Citation (Laws et al., 2006) (denoted Group 1), as well as previously unpublished results for an additional 228 structually diverse TSCA chemicals for which no ER binding was observed (denoted Group 2. IC50 values were determined for 32 compounds in Group 1 as the concentration of a test chemical that inhibits the maximal specific binding of 0.33 nM radiolabeled (3H) 17-beta-estradiol (E2) to rat uterine cytosolic (RUC) estrogen receptor (ER) by 50%. Confirmation of binding status was accomplished by secondary analysis using Lineweaver-Burk plots and slope replots to determine true competitive inhibition and an experimental Ki value. Ki is the inhibition constant for the test chemical, i.e., the concentration of the test chemical that will bind to half the binding sites at equilibrium (displacing half of the probe-bound receptors), in the absence of radioligand or other competitors. Ki reported as Mean +/- Standard Error from n=2 experiments (see StandardError_Ki_n2) and is determined from Lineweaver-Burk plots over the tested dose range (TestedRange_microM). For more information see BindingCurve_Group and BindingCurve_Details. […]

The source made the active and inactive calls.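 The calls were made as follows: active = chemicals shown by follow-up kinetic tests to compete for rat estrogen receptor sites, with a measured inhibition constant; inconclusive = some binding seen but constant unmeasurable owing to poor solubility; inactive = no binding up to top dose, or binding unconfirmed.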

Sequence of Estrogen receptor (Rattus norvegicus) (P06211 whole entry, looked up): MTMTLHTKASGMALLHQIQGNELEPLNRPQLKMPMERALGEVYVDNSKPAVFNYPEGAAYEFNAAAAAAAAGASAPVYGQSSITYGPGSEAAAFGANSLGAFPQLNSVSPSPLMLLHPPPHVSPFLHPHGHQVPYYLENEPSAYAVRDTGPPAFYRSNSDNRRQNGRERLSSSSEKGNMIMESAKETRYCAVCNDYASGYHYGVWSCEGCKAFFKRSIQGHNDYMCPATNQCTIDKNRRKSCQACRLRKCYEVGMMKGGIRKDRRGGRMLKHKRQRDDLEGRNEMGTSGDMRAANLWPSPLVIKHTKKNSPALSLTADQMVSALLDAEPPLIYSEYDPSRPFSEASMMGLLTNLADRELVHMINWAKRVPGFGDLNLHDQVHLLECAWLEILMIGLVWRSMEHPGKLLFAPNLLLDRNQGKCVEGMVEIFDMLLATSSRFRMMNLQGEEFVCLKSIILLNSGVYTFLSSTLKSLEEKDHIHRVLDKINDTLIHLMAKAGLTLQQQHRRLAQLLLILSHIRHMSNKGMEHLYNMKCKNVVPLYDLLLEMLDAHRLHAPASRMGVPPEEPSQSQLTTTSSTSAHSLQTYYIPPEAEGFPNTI

As to `CCOP(=S)(OCC)SCn1c(=O)oc2cc(Cl)ccc21`, the outcome is “inactive; none”.

With `CCCCCCCCOc1ccc(C(=O)c2ccccc2)c(O)c1`, the outcome is “inactive; none”.

On to `Cc1ccc(C)c(O)c1C`, for which the outcome is “inactive; none”.

`CCO[Si](CCCCl)(OCC)OCC`: the outcome is “inactive; none”.

On to `CCSC(C)CC1CC(=O)C(/C(CC)=N/OC/C=C/Cl)=C(O)C1` (configuration not stated), for which the outcome was “inactive; none”.

As for `CC(C)(c1ccccc1)c1ccc(O)cc1`, the Potency (TestedRange_microM: 3-30) is 16.5 µM.

`O=C(O)c1ccccc1Br`: the outcome is “inactive; none”.

For `C[Si]1(C)N[Si](C)(C)N[Si](C)(C)N1`, the outcome is “inactive; incomplete”.

Take `CCCCCCCC(=O)OCC(COC(=O)CCCCCCC)OC(=O)CCCCCCC`: the outcome is “inactive; none”.

With `CCC(C)N` (configuration not stated), the outcome is “inactive; none”.

Regarding `O=C(O)c1cc(O)c2ccccc2c1O`, the outcome was “inactive; incomplete”.

As to `O=C(Nc1ccc(Cl)cc1)Nc1ccc(Cl)c(Cl)c1`, the outcome is “inactive; none”.

For `COCOC`, the outcome is “inactive; none”.

`CCCCS`: the outcome is “inactive; none”.

As for `N#CCCSCCC#N`, the outcome was “inactive; none”.

In the case of `O=C1OS(=O)(=O)c2ccccc21`, the outcome was “inactive; none”.

As to `CCCCN(CCCC)C(=S)[S-].CCCCN(CCCC)C(=S)[S-].[Ni+2]`, the outcome is “inactive; none”.

As for `C=CCCCCCCCCC=O`, the outcome is “inactive; incomplete”.

On to `C1=CCCCC1`, for which the outcome is “inactive; none”.

Take `Cc1cscn1`: the outcome is “inactive; none”.

Consider `ClC(Cl)C(Cl)Cl`, for which the outcome is “inactive; none”.

For the compound `CCCCCOC(C)=O`, the outcome is “inactive; none”.

Consider `CC(C)C(=O)C(C)C`, for which the outcome is “inactive; none”.

For `Cc1cccc(C(=O)O)c1O`, the outcome is “inactive; none”.

For `O=C1OC2(c3ccc(O)cc3Oc3cc(O)ccc32)c2ccccc21`, the outcome is “inactive; none”.

As to `CC(C)(C)CC(C)(C)c1ccc(O)c(-n2nc3ccccc3n2)c1`, the outcome is “inactive; none”.

In the case of `NCCCCCCNCCCCCCN`, the outcome is “inactive; none”.

For `CCO[Si](CCCN=C=O)(OCC)OCC`, the outcome was “inactive; none”.

Turning to `COc1ccccc1NC(=O)c1cc2ccccc2cc1O`, the outcome was “inactive; none”.

With `CCN(CCO)c1ccc(N=Nc2ccc([N+](=O)[O-])cc2Cl)cc1`, the outcome is “inactive; none”.

`CC1(C)C(C=C(Cl)Cl)C1C(=O)OC(C#N)c1cccc(Oc2ccccc2)c1` (configuration not stated): the outcome was “inactive; none”.

Regarding `Cc1cc(-n2nc3ccc(Cl)cc3n2)c(O)c(C(C)(C)C)c1`, the outcome is “inactive; none”.

As for `O=C1CCC(=O)O1`, the outcome was “inactive; none”.

Regarding `Cc1cccc[n+]1[O-]`, the outcome was “inactive; none”.

As to `C=CS(=O)(=O)O`, the outcome is “inactive; none”.

Turning to `Cc1cc(C(C)(C)C)cc(C)c1C`, the outcome is “inactive; none”.

For the compound `Cc1c(C)c2c(c(C)c1O)CC[C@@](C)(CCC[C@H](C)CCC[C@H](C)CCCC(C)C)O2`, the outcome is “inactive; none”.

`ClC1(Cl)C2(Cl)C3(Cl)C4(Cl)C(Cl)(Cl)C5(Cl)C3(Cl)C1(Cl)C5(Cl)C24Cl` (configuration not stated): the outcome was “inactive; none”.

In the case of `CN1CSC(=S)N(C)C1`, the outcome is “inactive; none”.

On to `O=C(O)CCCCC(=O)O`, for which the outcome is “inactive; none”.

For the compound `NNC(=O)c1cccc(C(=O)NN)c1`, the outcome was “inactive; none”.

Regarding `CO[Si](CCCNCCC[Si](OC)(OC)OC)(OC)OC`, the outcome was “inactive; none”.

With `COc1ccc(C=O)cc1OC`, the outcome was “inactive; incomplete”.

As for `O=S(=O)(c1ccc(O)cc1)c1ccc(O)cc1`, under “TestedRange_microM: 10-100”, the Potency is 82.4 µM.

Regarding `O=C(O)c1c(Cl)c(Cl)c(Cl)c(Cl)c1C1c2cc(Br)c(O)c(Br)c2Oc2c1cc(Br)c(O)c2Br`, the outcome was “inactive; none”.

With `CN(C)C(=O)Nc1ccc(Cl)c(Cl)c1`, the outcome was “inactive; none”.

For `CC(=O)c1ccc(O)cc1`, the outcome is “inactive; none”.

`O=C(O)CC(O)(CC(=O)O)C(=O)O`: the outcome was “inactive; none”.

As to `OCC1CC2C=CC1C2` (configuration not stated), the outcome was “inactive; none”.

For `O=C=Nc1cccc(C(F)(F)F)c1`, the outcome is “inactive; none”.

As to `CCC[CH2][Sn]([CH2]CCC)([CH2]CCC)[O][Sn]([CH2]CCC)([CH2]CCC)[CH2]CCC`, the outcome is “inactive; none”.

As for `CC(Cl)Cl`, the outcome was “inactive; none”.

`CC(C)(C)c1cc(-n2nc3ccc(Cl)cc3n2)c(O)c(C(C)(C)C)c1`: the outcome is “inactive; none”.

As for `CCC(=O)O`, the outcome was “inactive; none”.

With `CCOC(=O)c1ccccc1C(=O)OCC`, the outcome was “inactive; none”.

For `CC(C)c1ccc2cc(C(C)C)ccc2c1`, the outcome is “inactive; none”.

For `CCCCCCC(=O)O`, the outcome was “inactive; none”.

For the compound `O=C(Nc1ccccc1)c1cc(Cl)ccc1O`, the outcome is “inactive; incomplete”.

Take `C=CC(=O)OCCC(F)(F)C(F)(F)C(F)(F)C(F)(F)C(F)(F)C(F)(F)C(F)(F)C(F)(F)C(F)(F)C(F)(F)F`: the outcome is “inactive; incomplete”.

On to `C=CC(=O)OCCC(F)(F)C(F)(F)C(F)(F)C(F)(F)C(F)(F)C(F)(F)F`, for which the outcome was “inactive; none”.

On to `O=C(O)c1ccc2cc(O)ccc2c1`, for which the outcome was “inactive; none”.

As for `O=C1c2ccccc2C(=O)N1SC1CCCCC1`, the outcome was “inactive; none”.

As to `O=C1OC2(c3ccc(O)cc3Oc3cc(O)ccc32)c2c(Cl)c(Cl)c(Cl)c(Cl)c21`, the outcome was “inactive; none”.

For `CCOC(=O)CCC(=O)OCC`, the outcome is “inactive; none”.

In the case of `CCCCCCCCCC#N`, the outcome is “inactive; none”.

Take `CC(C)COC(=O)C(C)C`: the outcome is “inactive; none”.

On to `c1c[nH]cn1`, for which the outcome is “inactive; none”.

`OCCOCCOCCO`: the outcome is “inactive; none”.

Turning to `CNC(=O)Oc1ccccc1OC(C)C`, the outcome was “inactive; none”.

On to `C=CC(=O)OCCOCCOC(=O)C=C`, for which the outcome was “inactive; none”.

As for `O=C(Nc1ccc(Cl)c(Cl)c1)Nc1cc(Cl)ccc1Oc1ccc(Cl)cc1S(=O)(=O)O`, the outcome (TestedRange_microM: 30-200) is “inactive; partial”.

For `CCCCCCCC=O`, the outcome was “inactive; irregular”.

As for `Cc1cc(O)c(C(C)(C)C)cc1C(C)CC(c1cc(C(C)(C)C)c(O)cc1C)c1cc(C(C)(C)C)c(O)cc1C` (configuration not stated), the outcome is “inactive; none”.

On to `COC(=O)c1cccc(C)c1S(=O)(=O)NC(=O)Nc1nc(OCC(F)(F)F)nc(N(C)C)n1`, for which the outcome was “inactive; none”.

As for `COCCO`, the outcome is “inactive; none”.

Regarding `CN(C)Cc1cc(CN(C)C)c(O)c(CN(C)C)c1`, the outcome is “inactive; none”.

As for `CCSC(=O)N(CC)C1CCCCC1`, the outcome is “inactive; none”.

Regarding `CC1CCCCN1CCCOC(=O)c1ccc(Cl)c(Cl)c1` (configuration not stated), the outcome is “inactive; none”.

In the case of `Oc1ccc(C(c2ccc(O)cc2)(C(F)(F)F)C(F)(F)F)cc1`, the Potency (TestedRange_microM: 2.5-7.5) is 1.9 µM.

`CCCCCCOC(C)=O`: the outcome is “inactive; none”.

As to `N#Cc1cc([N+](=O)[O-])ccc1N`, the outcome was “inactive; none”.

`Cc1cc[cH-]c1.[C-]#[O+].[C-]#[O+].[C-]#[O+].[Mn]`: the outcome is “inactive; none”.
